We go through one molecule from EP4692080A1, “PREPARATION METHOD FOR SALT FORM AND CRYSTAL FORM OF 2,6-PIPERIDINEDIONE COMPOUND AND USE THEREOF” (priority 2023, dated 2024).

Where a name gives a salt, the structure may show the parent alone.

In one series the target is T1, IRAK4 (Homo sapiens, UniProt Q9NWZ3).
T1 construct: expressed in transfected cells; host or cells: K562 IRAK4-HiBiT cells
T1 sequence (Q9NWZ3 1-460): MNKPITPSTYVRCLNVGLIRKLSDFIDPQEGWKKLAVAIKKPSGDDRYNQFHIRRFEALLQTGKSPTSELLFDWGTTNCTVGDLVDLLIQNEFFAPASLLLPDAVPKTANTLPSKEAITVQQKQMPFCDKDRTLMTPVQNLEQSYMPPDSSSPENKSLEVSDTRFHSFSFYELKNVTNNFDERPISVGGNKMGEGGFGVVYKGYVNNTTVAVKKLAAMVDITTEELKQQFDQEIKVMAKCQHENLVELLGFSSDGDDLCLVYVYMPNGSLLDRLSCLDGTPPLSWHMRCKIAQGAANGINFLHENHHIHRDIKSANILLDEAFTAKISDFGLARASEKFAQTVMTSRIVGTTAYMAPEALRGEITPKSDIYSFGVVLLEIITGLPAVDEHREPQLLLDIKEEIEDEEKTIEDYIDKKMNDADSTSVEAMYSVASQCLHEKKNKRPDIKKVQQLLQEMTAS
The series can be described thus: Target protein degradation in K562 IRAK4-HiBiT cells (Nano-Glo HiBiT assay). Type of series: cell-based. The settings on record: K562, read-out: Maximum Degradation Rate. As for the experimental part:
Objective: In this experiment, the degradation effect of the compound of formula (I) on the target protein IRAK4 in K562 IRAK4-HiBiT cells was detected.
• Cells: K562 IRAK4-HiBiT cells • Culture medium: RPMI 1640 + 10% fetal bovine serum + 2 mM glutamine + 1 mM sodium pyruvate + penicillin/streptomycin • Positive control: 1000 nM; negative control: 0.1% DMSO Table 7. Reagents and consumables […]
• (1) The cell culture medium was discarded, and the cells were washed once with DPBS, digested with trypsin, and counted to prepare a cell suspension of […]. • (2) 25 µL/well of cell suspension was added to the assay plate containing the test compound using Multidrop Combi at medium speed. • (3) The assay plate containing cells was returned to an incubator with 5% CO2 at 37°C and incubated for 16 to 18 hours.
• (1) 25 µL/well of assay reagent (NanoGlo lysis buffer + substrate + LgBit protein) was added to the assay plate using Multidrop Combi at high speed, and the plate was shaken for 10 minutes. • (2) The plate was centrifuged at 2000 rpm for 1 minute to remove air bubbles. • (3) The plate was read on Envision using US Luminescence detection method. […]
For orientation: With HiBiT, luminescence reflects the tagged protein that the partner subunit can reach.

Series [1] can be described thus: Pharmacokinetic evaluation in beagle dogs. The settings on record: fed. It counts as in vivo, Male beagle dogs. On the procedure: Male beagle dogs were selected as the experimental animals in this study.
Beagle dogs (male, 7 to 10 kg, Beijing Mars Biotechnology Co., Ltd.).
A clear solution of the test compound was slowly injected intravenously into beagle dogs (fed) via the peripheral vein (vehicle: 5% DMSO/10% Solutol/85% H2O), or administered intragastrically to beagle dogs (fed). For intravenous administration, 0.5 mL of blood was collected from the peripheral vein at 0.083, 0.25, 0.5, 1, 2, 4, 6, 8, and 24 h after administration, placed in EDTA-2K anticoagulant tubes, and centrifuged at 3200 g for 10 minutes at 2 to 8°C to separate the supernatant. For intragastric administration, 0.5 mL of blood was collected from the peripheral vein at 0.083, 0.25, 0.5, 1, 2, 4, 6, 8, and 24 h after administration, placed in EDTA-2K anticoagulant tubes, and centrifuged at 3200 g for 10 minutes at 2 to 8°C to separate the supernatant. Plasma drug concentrations were determined by the LC-MS/MS method, and relevant pharmacokinetic parameters were calculated using Phoenix WinNonlin 6.3 pharmacokinetic software with non-compartmental model linear-log trapezoidal method.

The next series concerns the target T2, IKZF1 (Homo sapiens, UniProt Q13422+Q96SW2).
T2 construct: expression levels of IKZF1 and IKZF3 proteins in MM.1S cells; host or cells: MM.1S cells
The series can be described thus: In cell western analysis of IKZF1 protein expression level in MM.1S cells. The settings on record: MM1.S, read-out: Maximum Degradation Rate Dmax. Type of series: cell-based. As for the experimental part:
(§1) Objective: The experiment was conducted to evaluate the degradation effects of the compound of formula (I) on IKZF1 and IKZF3 proteins in MM.1S cells by detecting their impact on the expression levels of IKZF1 and IKZF3 proteins in MM.1S cells.
(§2) • Cell line: MM.1S cell (obtained from ATCC; Cat. No. CRL-2974) • Negative control: 0.1% DMSO Table 10. Reagents and consumables
(§3) • 1) MM.1S cells in the logarithmic growth phase were seeded into a 96-well plate at 1.2×10^5 cells per well and cultured overnight. • 2) On the second day, drug treatment was initiated with a starting concentration of 300 nM, followed by a 3-fold dilution in triplicate wells, with 10 concentration gradients (containing DMSO), and incubated for 24 hours in a culture incubator. • 3) The mixture was centrifuged, and the cell supernatant was carefully removed. […]
(§4) GraphPad Prism 6 software was utilized to fit the curve with the inhibition rate data, and the DC50 value was calculated.

Series [2] can be described thus: Pharmacokinetic evaluation in mice. Type of series: in vivo, C57BL/6 or C57 male mice. The source says:
C57BL/6 or C57 male mice were selected as the test animals for this study. The LC/MS/MS method was employed to quantitatively determine the plasma drug concentrations at various time points after intravenous injection or intragastric administration of the test compound, aiming to evaluate the pharmacokinetic characteristics of the compound of the present disclosure in mice.
C57BL/6 or C57 mice (male, 20 to 30g, 7 to 10 weeks old, Beijing Vital River).
A clear solution of the test compound was injected intravenously into the tail vein of C57BL/6 mice (fasted overnight) (vehicle: 10% DMSO/10% solutol/80% H2O), or administered intragastrically to C57 mice (fed). […] The mixture was thoroughly vortexed and mixed, and centrifuged at 6000 g for 3 minutes at 2 to 8°C. […] The mixture was thoroughly vortexed and mixed, and centrifuged at 6000 g for 3 minutes at 2 to 8°C. Plasma drug concentrations were determined by the LC-MS/MS method, and relevant pharmacokinetic parameters were calculated using Phoenix WinNonlin 8.2.0 pharmacokinetic software with non-compartmental model linear-log trapezoidal method.

Another series has as its target T3, IKZF3 (Homo sapiens, UniProt Q96SW2+Q9UKT9).
T3 construct: expression levels of IKZF1 and IKZF3 proteins in MM.1S cells; host or cells: MM.1S cells
The series can be described thus: In cell western analysis of IKZF3 protein expression level in MM.1S cells. It counts as cell-based. The following applies: MM1.S, read-out: Maximum Degradation Rate Dmax. On the procedure: as §1, §2, §3, §4

[3] abbreviates: Intragastric Administration (5 mg/kg).
The mark [4] stands for this setting: Intragastric Administration (10 mg/kg) (fed).

T3 sequence (Q9UKT9 whole entry): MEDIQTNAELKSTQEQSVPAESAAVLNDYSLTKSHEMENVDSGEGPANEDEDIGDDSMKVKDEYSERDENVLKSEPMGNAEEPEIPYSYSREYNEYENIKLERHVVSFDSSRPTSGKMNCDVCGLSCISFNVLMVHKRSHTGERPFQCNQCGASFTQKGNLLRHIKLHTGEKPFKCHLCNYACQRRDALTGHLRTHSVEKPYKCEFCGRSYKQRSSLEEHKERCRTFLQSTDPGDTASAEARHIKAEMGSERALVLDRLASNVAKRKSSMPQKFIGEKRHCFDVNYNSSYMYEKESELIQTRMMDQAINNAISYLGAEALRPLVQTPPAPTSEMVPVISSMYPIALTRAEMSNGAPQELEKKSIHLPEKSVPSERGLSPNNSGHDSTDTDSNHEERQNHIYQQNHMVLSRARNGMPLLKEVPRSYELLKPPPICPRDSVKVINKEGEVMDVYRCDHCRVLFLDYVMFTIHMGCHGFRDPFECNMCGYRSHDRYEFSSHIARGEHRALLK
T3 sequence (Q96SW2 whole entry): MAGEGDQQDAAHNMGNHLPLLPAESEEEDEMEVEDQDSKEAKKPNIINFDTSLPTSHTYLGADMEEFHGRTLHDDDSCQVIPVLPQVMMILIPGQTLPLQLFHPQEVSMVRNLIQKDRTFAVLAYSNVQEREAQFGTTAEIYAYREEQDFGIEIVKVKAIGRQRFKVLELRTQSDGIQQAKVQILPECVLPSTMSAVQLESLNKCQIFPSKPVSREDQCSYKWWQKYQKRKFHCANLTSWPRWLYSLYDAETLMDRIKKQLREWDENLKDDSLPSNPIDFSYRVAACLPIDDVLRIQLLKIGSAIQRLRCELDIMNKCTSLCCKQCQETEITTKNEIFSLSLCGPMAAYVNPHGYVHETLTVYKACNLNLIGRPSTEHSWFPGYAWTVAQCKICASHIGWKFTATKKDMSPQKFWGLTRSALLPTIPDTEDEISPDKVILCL
T3 sequence (Q16531 whole entry partner): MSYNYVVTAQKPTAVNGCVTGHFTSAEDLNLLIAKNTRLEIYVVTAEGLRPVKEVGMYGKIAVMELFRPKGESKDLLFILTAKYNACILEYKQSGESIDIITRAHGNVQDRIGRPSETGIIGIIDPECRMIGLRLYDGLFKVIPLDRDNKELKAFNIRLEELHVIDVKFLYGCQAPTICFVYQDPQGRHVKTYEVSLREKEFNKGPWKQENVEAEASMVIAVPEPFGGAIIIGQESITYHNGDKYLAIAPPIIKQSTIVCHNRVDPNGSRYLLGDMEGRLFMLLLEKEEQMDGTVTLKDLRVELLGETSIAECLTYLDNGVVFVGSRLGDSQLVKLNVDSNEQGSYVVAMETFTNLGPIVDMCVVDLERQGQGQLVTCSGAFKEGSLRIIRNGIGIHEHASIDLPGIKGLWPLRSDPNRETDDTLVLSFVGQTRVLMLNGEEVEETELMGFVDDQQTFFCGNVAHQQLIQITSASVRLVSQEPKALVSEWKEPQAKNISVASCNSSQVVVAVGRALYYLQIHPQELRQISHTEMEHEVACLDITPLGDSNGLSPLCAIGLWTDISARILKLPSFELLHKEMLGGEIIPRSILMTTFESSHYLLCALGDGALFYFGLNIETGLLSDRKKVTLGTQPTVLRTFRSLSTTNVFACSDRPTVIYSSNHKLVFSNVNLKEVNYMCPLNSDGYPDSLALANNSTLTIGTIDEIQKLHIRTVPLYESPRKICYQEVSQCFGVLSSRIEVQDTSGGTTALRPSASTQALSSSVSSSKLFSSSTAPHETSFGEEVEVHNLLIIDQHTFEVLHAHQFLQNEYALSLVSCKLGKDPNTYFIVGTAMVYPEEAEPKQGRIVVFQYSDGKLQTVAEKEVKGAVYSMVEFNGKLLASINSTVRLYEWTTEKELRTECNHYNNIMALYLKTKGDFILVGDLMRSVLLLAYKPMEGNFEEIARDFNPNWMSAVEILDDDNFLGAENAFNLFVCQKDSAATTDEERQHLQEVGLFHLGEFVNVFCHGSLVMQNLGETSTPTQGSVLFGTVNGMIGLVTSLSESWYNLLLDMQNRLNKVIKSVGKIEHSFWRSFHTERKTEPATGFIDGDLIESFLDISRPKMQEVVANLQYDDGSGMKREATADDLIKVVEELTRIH
T2 sequence (Q13422 whole entry): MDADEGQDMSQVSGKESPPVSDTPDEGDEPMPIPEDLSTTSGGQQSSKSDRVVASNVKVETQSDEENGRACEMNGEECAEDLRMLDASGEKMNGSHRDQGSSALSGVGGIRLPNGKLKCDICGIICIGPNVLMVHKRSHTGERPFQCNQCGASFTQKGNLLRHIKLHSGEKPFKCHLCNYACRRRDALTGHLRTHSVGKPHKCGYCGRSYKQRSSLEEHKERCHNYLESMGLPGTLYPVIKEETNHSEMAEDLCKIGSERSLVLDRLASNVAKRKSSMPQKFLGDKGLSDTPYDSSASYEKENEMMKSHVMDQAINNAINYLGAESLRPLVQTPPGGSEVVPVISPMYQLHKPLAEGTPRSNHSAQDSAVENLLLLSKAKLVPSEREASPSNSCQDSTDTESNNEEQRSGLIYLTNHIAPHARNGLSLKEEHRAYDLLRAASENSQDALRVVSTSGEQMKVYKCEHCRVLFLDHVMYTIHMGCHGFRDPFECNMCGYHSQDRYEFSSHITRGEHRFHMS
T2 sequence (Q96SW2 whole entry): as the sequence (Q96SW2 whole entry) above
T2 sequence (Q16531 whole entry partner): as the sequence (Q16531 whole entry partner) above

Consider `O=C1CCC(c2noc3ccc4c(NC(=O)CN5CCN(C[C@H]6CC[C@H](n7cc(NC(=O)c8coc(-c9ccnc(NCC%10CC%10)c9)n8)c(C(F)F)n7)CC6)CC5)cccc4c23)C(=O)N1` (stereo partly drawn) [Hydrochloride of Compound of Formula (I)], for which the Dmax at IRAK4 was found to be 108%; at IKZF1, 72.3%; at IKZF3, 73.5%. Moreover, the “Area Under the Drug-Time Curve (0-inf)” value in series [1] (setting [3]) came out at 3.20 µM·h; in series [1] (Intravenous Injection (0.5 mg/kg)), 0.44 µM·h; in series [2] (setting [4]) it was 4.47 µM·h; in series [2] (Intravenous Injection (2 mg/kg) (fasted)), 5.40 µM·h. Also, the “Peak Concentration” value is recorded as 0.41 µM in series [1] (setting [3]) and 0.54 µM in series [2] (setting [4]).
